Test results as given in ChEMBL document CHEMBL1201862, “PubChem BioAssay data set” (2004).
Active and inactive are the calls of the source.

Key:
[1] = target: T1, Tyrosine-protein phosphatase non-receptor type 7 (Homo sapiens, UniProt P35236); assay: HePTP tyrosine phosphatase activity blockers – biochemical, absorbance, leukemia target, primary screen (AID 521); assay type: functional
T1 sequence (P35236 whole entry): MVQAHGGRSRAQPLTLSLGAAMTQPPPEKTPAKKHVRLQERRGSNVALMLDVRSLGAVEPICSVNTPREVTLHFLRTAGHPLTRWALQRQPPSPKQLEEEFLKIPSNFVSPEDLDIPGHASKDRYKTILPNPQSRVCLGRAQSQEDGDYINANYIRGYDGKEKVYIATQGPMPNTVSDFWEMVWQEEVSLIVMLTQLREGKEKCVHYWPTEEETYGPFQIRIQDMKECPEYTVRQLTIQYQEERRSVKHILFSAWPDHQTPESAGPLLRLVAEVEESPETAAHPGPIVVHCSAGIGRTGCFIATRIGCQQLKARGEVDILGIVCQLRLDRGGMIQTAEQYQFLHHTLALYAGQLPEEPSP

[2] = target: Sphingosine 1-phosphate receptor 2 (Homo sapiens, UniProt O95136); assay: Dose Response Cell Based Assay for Agonists of the S1P2 Receptor. [Related pubchem assays: 729, 736, 843 ]; assay type: functional
Chain of Sphingosine 1-phosphate receptor 2 (O95136 whole entry): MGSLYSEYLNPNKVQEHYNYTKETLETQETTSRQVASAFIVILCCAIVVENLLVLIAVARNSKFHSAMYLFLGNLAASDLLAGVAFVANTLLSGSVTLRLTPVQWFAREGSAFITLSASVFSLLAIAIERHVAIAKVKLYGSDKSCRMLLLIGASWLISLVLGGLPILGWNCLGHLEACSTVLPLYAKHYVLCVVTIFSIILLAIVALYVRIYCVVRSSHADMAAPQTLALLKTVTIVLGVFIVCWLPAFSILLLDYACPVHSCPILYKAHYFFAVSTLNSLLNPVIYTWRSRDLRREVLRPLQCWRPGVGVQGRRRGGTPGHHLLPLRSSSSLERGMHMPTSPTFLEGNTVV

HEK293 = assay: viability loss in HEK293T cells – cell-based, ATP luminescence, cherry-pick samples, cytotoxicity control, dose response (AID 687005); assay type: functional; conditions: Homo sapiens;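 note: cells exposed to compound for 48 hours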
[3] = HEK293 Cytotoxicity Assay Measured in Cell-Based System Using Plate Reader - 7071-01_Inhibitor_Dose_CherryPick_Activity_Set2.; assay type: functional
Large T antigen = Large T antigen (Simian virus 40, UniProt P03070); assay type: functional, Betapolyomavirus macacae;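 note: Confirmatory-stage PubChem screen for compounds that inhibit SV40 T antigen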
Chain of Large T antigen (P03070 whole entry): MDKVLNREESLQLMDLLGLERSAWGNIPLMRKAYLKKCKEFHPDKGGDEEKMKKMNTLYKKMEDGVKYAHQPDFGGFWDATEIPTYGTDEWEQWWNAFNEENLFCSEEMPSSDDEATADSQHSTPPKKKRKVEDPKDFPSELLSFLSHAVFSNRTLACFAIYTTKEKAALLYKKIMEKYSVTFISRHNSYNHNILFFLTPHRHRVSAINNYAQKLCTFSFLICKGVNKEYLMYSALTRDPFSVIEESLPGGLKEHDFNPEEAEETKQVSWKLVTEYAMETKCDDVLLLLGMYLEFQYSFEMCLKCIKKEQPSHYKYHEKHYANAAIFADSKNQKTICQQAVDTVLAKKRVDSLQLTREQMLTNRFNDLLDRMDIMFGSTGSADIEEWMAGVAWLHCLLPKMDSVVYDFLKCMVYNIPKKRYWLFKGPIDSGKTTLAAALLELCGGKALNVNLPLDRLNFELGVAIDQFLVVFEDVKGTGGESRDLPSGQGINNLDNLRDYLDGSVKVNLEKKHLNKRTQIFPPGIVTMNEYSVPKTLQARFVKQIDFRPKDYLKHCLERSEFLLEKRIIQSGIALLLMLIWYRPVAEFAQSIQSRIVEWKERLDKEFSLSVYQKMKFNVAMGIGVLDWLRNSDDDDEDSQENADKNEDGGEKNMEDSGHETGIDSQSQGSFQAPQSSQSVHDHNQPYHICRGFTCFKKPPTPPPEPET

[4] = target: Bifunctional protein GlmU (Mycobacterium tuberculosis, UniProt P9WMN3); assay: Inhibitors of Mycobacterial Glucosamine-1-phosphate acetyl transferase (GlmU). Secondary screen.; parameters: species or system Mycobacterium tuberculosis H37Rv
Chain of Bifunctional protein GlmU (P9WMN3 whole entry): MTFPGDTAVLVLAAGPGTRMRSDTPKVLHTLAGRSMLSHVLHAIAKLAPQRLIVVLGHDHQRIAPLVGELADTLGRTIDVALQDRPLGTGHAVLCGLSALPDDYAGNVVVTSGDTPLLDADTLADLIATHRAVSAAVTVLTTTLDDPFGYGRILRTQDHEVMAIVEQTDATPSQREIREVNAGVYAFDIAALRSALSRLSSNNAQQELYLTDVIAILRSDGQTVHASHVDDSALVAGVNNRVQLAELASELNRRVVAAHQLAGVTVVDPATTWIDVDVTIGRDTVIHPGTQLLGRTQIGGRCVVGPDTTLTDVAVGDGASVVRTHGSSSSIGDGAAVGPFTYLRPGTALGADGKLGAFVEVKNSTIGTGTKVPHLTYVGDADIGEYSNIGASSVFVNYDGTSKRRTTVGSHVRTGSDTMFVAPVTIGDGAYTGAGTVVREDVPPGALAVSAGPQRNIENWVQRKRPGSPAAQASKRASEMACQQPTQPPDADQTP

[5] = target: 1-phosphatidylinositol 4,5-bisphosphate phosphodiesterase gamma-1 (Homo sapiens, UniProt P19174); assay: Counterscreen for inhibitors of phospholipase C isozymes (PLC-B3): Fluorescence-based biochemical high throughput dose response assay to identify inhibitors of phospholipase C isozymes (PLC-gamma1).
[6] = target: 1-phosphatidylinositol 4,5-bisphosphate phosphodiesterase beta-3 (Homo sapiens, UniProt Q01970); assay: Fluorescence-based biochemical high throughput dose response assay to identify inhibitors of phospholipase C isozymes (PLC-B3).
Chain of 1-phosphatidylinositol 4,5-bisphosphate phosphodiesterase beta-3 (Q01970 whole entry): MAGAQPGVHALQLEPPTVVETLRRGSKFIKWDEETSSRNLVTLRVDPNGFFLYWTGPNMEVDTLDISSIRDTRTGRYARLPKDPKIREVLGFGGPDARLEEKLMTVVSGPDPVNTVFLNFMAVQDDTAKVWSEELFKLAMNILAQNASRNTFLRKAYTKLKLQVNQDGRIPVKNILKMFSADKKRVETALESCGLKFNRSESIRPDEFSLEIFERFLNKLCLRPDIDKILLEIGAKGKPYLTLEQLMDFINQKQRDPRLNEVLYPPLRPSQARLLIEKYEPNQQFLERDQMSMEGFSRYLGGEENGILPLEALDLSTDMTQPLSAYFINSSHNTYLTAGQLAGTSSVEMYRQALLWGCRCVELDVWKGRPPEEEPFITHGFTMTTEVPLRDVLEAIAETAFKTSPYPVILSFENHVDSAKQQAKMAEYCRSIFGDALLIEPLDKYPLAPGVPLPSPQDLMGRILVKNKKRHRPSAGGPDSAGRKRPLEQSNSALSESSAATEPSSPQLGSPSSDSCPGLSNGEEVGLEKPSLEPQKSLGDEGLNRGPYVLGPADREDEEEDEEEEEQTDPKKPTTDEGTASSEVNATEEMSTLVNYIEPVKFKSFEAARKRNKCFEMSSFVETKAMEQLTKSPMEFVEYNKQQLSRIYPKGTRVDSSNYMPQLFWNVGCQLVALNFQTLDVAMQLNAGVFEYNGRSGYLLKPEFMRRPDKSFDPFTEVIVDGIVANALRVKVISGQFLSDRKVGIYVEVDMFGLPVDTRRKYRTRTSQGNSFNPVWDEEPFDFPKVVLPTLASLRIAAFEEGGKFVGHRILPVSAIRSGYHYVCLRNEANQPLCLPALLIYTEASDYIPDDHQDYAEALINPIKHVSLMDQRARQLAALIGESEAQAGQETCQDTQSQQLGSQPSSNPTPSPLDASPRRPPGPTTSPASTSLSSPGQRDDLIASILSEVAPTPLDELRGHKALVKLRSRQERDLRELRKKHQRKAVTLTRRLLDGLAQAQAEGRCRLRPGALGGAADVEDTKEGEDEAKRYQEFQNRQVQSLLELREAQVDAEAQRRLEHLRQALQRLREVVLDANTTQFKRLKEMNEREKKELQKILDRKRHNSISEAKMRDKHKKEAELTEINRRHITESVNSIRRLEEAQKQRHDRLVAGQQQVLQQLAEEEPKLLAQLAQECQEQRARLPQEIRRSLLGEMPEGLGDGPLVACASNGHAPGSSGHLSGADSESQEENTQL

[7] = target: E3 ubiquitin-protein ligase Mdm2 (Homo sapiens, UniProt Q00987); assay: MDM2-luc reporter signal enhancers, multi-concentration potency testing, MDM2 ubiquitin-protein ligase inhibitor program, whole-cell format, luminescence detection, 384-well microplate (AID 1394); assay type: functional;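 note: MDM2 E3 inhibitors raise luminescence so EC50 is for signal enhancement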
Chain of E3 ubiquitin-protein ligase Mdm2 (Q00987 whole entry): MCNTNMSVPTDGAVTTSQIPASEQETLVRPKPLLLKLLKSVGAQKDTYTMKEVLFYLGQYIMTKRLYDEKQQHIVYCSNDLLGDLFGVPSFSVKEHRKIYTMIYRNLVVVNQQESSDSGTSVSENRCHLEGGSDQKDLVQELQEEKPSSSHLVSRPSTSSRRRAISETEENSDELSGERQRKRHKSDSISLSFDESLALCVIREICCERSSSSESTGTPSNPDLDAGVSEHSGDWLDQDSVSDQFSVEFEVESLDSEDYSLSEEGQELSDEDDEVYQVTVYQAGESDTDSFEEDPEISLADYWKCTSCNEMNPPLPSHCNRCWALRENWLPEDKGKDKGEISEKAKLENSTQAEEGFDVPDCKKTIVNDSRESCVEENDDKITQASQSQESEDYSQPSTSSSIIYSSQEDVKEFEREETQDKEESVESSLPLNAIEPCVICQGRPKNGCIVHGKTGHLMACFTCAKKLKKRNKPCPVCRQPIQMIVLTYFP

[8] = system: Streptococcus sp. 'group A'; assay: Streptococcus pyogenes SK(-)GAS viability under kanamycin – luminescence, BacTiterGlo, confirmation, counter-screen for streptokinase expression inhibitor project, dose response (AID 1900); assay type: functional, organism-based
Streptokinase A = target: T2, Streptokinase A (Streptococcus pyogenes serotype M1, UniProt P10520); assay: viability-normalized secreted streptokinase activity reduction – plasminogen activation absorbance, OD405, dose response (AID 1914); assay type: functional, Streptococcus pyogenes M1 GAS;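 note: secreted streptokinase activity via plasminogen activation per viability signal from cell pellet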
T2 sequence (P10520 whole entry): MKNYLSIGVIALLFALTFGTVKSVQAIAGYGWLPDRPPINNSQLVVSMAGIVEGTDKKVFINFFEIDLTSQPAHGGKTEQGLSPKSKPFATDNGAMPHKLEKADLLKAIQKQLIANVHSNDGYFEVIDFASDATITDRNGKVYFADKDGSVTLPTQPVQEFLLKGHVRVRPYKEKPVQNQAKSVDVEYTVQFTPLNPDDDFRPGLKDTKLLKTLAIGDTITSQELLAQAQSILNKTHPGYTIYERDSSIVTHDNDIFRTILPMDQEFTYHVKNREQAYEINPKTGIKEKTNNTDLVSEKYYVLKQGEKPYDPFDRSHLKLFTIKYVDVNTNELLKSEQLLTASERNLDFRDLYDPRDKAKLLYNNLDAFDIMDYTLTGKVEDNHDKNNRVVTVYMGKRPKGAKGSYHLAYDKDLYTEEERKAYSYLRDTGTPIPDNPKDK

Streptococcus = assay: GAS UMAA2166 growth inhibition – luminescence, BacTiterGlo, counter-screen for streptokinase expression inhibitor project, dose response (AID 1915); assay type: functional, organism-based;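 note: potency for reduction of bacterial viability or growth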
H9c2 = assay: cells; assay type: functional, cell-based; conditions: Rattus norvegicus, H9c2, Myocardium;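 note: confirmatory concentration-response retest of ultra-high-throughput screening hits for modulation of myocardial damage; cell death induced by hydrogen peroxide oxidative stress; compound pretreatment for 60 min then peroxide exposure for 2 h; potency is for protecting the cells against peroxide damage rather than for killing them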
Transthyretin = Transthyretin (Homo sapiens, UniProt P02766); assay: Luminescence-based cell-based high throughput dose response assay to identify activators of Transthyretin (TTR) transcription.; assay type: functional
[9] = target: T3, Methionyl-tRNA synthetase, putative (Trypanosoma brucei brucei, UniProt Q38C91); assay type: functional, Trypanosoma brucei brucei strain 927/4 GUTat10.1
T3 sequence (Q38C91 whole entry): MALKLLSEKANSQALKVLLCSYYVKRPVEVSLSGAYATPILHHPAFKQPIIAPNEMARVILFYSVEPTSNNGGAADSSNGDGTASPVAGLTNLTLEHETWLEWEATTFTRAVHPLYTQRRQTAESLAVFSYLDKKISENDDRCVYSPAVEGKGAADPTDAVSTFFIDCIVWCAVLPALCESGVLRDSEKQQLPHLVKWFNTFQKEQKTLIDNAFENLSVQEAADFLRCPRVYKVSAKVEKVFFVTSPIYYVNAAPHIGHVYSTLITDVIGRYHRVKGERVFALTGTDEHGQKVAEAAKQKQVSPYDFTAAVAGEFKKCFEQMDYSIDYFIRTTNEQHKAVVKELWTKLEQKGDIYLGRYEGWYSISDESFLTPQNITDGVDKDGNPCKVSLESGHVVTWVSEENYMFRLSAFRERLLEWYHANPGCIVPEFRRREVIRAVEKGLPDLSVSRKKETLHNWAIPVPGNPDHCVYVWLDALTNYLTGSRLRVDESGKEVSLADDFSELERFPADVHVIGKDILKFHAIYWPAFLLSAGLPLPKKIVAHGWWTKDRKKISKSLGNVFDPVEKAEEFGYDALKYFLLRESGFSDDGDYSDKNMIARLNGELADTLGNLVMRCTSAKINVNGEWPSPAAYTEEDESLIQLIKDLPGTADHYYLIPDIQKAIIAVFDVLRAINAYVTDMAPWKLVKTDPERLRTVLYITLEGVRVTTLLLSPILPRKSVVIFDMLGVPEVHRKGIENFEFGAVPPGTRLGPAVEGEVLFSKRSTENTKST

[10] = Counterscreen for inhibitors of Trypanosoma brucei methionyl tRNA synthetase (MetRS): Luminescence-based cell-based high throughput dose response assay to identify compounds that are cytotoxic to Jurkat human T lymphocyte cells.; assay type: functional
[11] = target: T3, Methionyl-tRNA synthetase, putative; assay type: functional, Trypanosoma brucei brucei strain 927/4 GUTat10.1; remark: listed apart in the source
[12] = Late stage counterscreen for inhibitors of Trypanosoma brucei methionyl tRNA synthetase (MetRS): Luminescence-based cell-based high throughput dose response assay to identify compounds that are cytotoxic to Jurkat human T lymphocyte cells.; assay type: functional

SMILES: Cc1ccc(-n2nnc3c(=O)n(CC(=O)NCc4ccco4)cnc32)cc1
- IC50 [1]: > 100 µM (not active)

SMILES: COc1cc2c(cc1OC)C1=C(C#N)CCC(=O)N1CC2
- EC50 [2]: 1.33 µM (active)

SMILES: COc1ccc(-n2cc(CNCCc3nc(C)cc(C)n3)c(-c3ccccc3Cl)n2)cc1
- AC50 (HEK293): 11.4 µM (active)
- AC50 [3]: 11.4 µM (active)

SMILES: COc1ccc(/C=C2/C(=O)NC(=O)N(Cc3ccco3)C2=O)cc1
- IC50 (Large T antigen): 23.5 µM (active)
- IC50 [4]: 1.79 µM (active)

SMILES: NC(=O)CC(NC(=O)Cc1cccc2ccccc12)c1ccc(N2CCCCCC2)c([N+](=O)[O-])c1 (stereo not drawn)
- IC50 [5]: > 122 µM (inactive)
- IC50 [6]: > 122 µM (inactive)

SMILES: Cc1ccc(-c2nc3ccccc3c(=O)n2-c2cccnc2)cc1
- EC50 [7]: 54.5 µM (not active)

SMILES: CCCNC(=O)c1ccc(N2CCC3(CC2)CC(c2ccccc2)=NO3)c(NC(=O)c2ccco2)c1
- EC50 [8]: 15.7 µM (active)
- EC50 (Streptokinase A): > 150 µM (not active)
- EC50 (Streptococcus): 38.2 µM (active)
- IC50 (H9c2): 31 µM (inactive)
- EC50 (Transthyretin): > 167 µM (inactive)

SMILES: Clc1ccc(-c2nnc(SCc3nc4ccccc4[nH]3)o2)c(Cl)c1
- IC50 [9]: 0.802 µM (active)
- IC50 [10]: 83.3 µM (inactive)
- IC50 [11]: 0.401 µM (active)
- IC50 [12]: > 83.3 µM (inactive)
